In one data set the test system is Wnt/β-catenin signaling. In words: Luciferase reporter assay (Super8XTOPFlash) for Wnt/β-catenin signaling in HEK293 cells. As to conditions: 24 h; for Wnt reporter activity / activation of Wnt/β-catenin signaling: HEK293 cells; for EC50: Homo sapiens, Wnt3A plasmid-transfected HEK293 cells, 30-30,000 nM, mean and SD of 3-7 independent experiments. It is filed as cell-based. How it is done: (A) structures of niciosamide and CI-994; (B) HEK293 cells were transfected with Super8XTOPFlash and β galactosidase vectors along with Wnt3A or control vector. After 24 hours incubation, cells were treated with CI-994 at the indicated concentration for 24 hr. The luciferase activity was then measured and normalized to the activity of the β-galactosidase. (C) HT1080 cells stably transduced LRP6 with HA tag were treated with niciosamide and CI-994 at the indicated concentrations for 24 h. The levels of HA-LRP6 were examined by Western blot with anti-HA antibody. (D) Western blots showing the depletion of LRP6 after 2 days of transiently transfection of 50 nM LRP6 siRNA in HEK293 cells. ON-TARGETplus double-stranded siRNA oligomers against human LRP6 and non-specific scrambled siRNA control (Stealth RNAi™ siRNA Negative Control, Med GC) were purchased from Thermo Scientific. siRNA LRP6-1, siRNA LRP6-2 and control siRNA were Thermo Scientific catalog numbers J-003845-09, J-003845-11 and 12935300, respectively. (E) HEK293 cells were transfected with LRP6 siRNAs, and after 8 h incubation were further transfected with Super8XTOPFlash construct and β galactosidase-expressing vector. After 24 h incubation, the cells were treated with CI-994 (16 μM) for 24 h. The luciferase activity was then measured and normalized to β-galactosidase activity. All the values are the average of triplicate determinations with the SD values indicated by error bars. **P<0.01 versus corresponding control value.
HEK293 cells were transfected with SuperXTOPFlash and β-galactosidase vectors along with Wnt3A or control vector. After 24 h incubation, cells were treated with 1015 or 1039 at the indicated concentrations for 24 h. The luciferase activity was then measured and normalized to the activity of the β-galactosidase. All the values are the average of triplicate determinations with the SD values indicated by error bars. This experiment is representative of at least three such experiments performed with similar data.
Luciferase reporter assay for Wnt/β-catenin signaling: HEK293 cells were plated into 24-well plates. After overnight culture, the cells were transiently transfected with the Super8XTOPFlash luciferase construct and β-galactosidase-expressing vector along with or without Wnt3A plasmid. After 24 h incubation, cells were treated with each individual compound at the indicated concentrations for 24 h. Cells were then lysed and both luciferase and β-galactosidase activities were determined. The luciferase activity was normalized to the β-galactosidase activity.
HEK293 cells were plated into 24-well plates. After overnight culture, the cells were transiently transfected with the Super8XTOPFlash luciferase construct and β-galactosidase-expressing vector along with the Wnt3A plasmid. After 24 h incubation, the cells were treated with each individual compound at 30-30,000 nM in triplication for 24 h. The cells were then lysed, and luciferase and β-galactosidase activities were determined with the luciferase assay system (Promega, Cat. #E1501) and β-galactosidase assay system (Promega, Cat. #E2000), respectively. The luciferase activity was normalized to the s-galactosidase activity, and the EC50 values were calculated by use of GraphPad software, and shown in the below table. All the EC50 values (mean and SD) are from 3-7 independent experiments.
(In general: Reporter assays use an easily measured gene product as a stand-in for the process of interest.)

In a further data set the test system is C2C12 cells. The data set is described as follows: Alkaline phosphatase (ALP) activity assay, osteoblastic differentiation of C2C12 cells. It is filed as cell-based. The following applies: 72 h; for potency in inducing C2C12 osteoblastic differentiation compared with CI-994: dose-response 0.1-12.8 μM. The procedure: C2C12 cells were seeded into 24-well plates (1×10^5 cells/well). After culture overnight, the cells were treated with a Wnt activator at 0.8 μM (A) and 1.6 μM (B) for 72 h. The ALP activity was measured by ALP assay kit from AnaSpec (AS-72146). All the values are the average of triple determinations with the s.d. indicated by error bars. *P<0.05, **P<0.01 versus corresponding control value. This experiment is a representation of two such experiments performed with similar data.
C2C12 cells were seeded into 24-well plates (1×10^5 cells/well). After culture overnight, the cells were treated with the noted compounds at 0, 0.1, 0.2, 0.4, 0.8, 1.6, 3.2, 6.4 and 12.8 μM for 72 hours. The ALP activity was measured by ALP assay kit from AnaSpec (AS-72146). All the values are the average of triple determinations with the s.d. indicated by error bars.
Alkaline phosphatase (ALP) activity assay: C2C12 cells in 24-well plates were treated with each individual compound at the indicated concentrations for 72 h. Cells were then harvested for assay of ALP activity with the ALP assay kit (AnaSpec) according to the manufacturers specifications.

Data set [1] is described as follows: Metabolic stability in mouse liver microsomes. As to conditions: 2 μM, five time points over 40 min, NADPH. The format is in vitro ADME. How it is done:
Metabolic stability of several compounds (1009, 1011, 1015, 1020, and 1056) and 2 reference compounds (propranolol and imipramine) were determined in mouse liver microsomes at five time points over 40 min using HPLC-MS. Metabolic stability is defined as the percentage of parent compound lost over time in the presence of a metabolically active test system.
Metabolic stability in mouse liver microsomes: Mouse hepatic microsomes were isolated from pooled, perfused livers of Balb/c male mice according to the standard protocol. The batch of microsomes was tested for quality control using Imipramine, Propranolol and Verapamil as reference compounds. Microsomal incubations were carried out in 96-well plates in 5 aliquots of 40 μL each (one for each time point). Liver microsomal incubation medium contained PBS (100 mM, pH 7.4), MgCl2 (3.3 mM), NADPH (3 mM), glucose-6-phosphate (5.3 mM), glucose-6-phosphate dehydrogenase (0.67 units/ml) with 0.42 mg of liver microsomal protein per ml. Control incubations were performed replacing the NADPH-cofactor system with PBS. Test compound (2 μM, final solvent concentration 1.6%) was incubated with microsomes at 37° C., shaking at 100 rpm. Incubations were performed in duplicates. Five time points over 40 minutes had been analyzed. The reactions were stopped by adding 12 volumes of 90% acetonitrile-water to incubation aliquots, followed by protein sedimentation by centrifuging at 5500 rpm for 3 minutes. […]. Supernatants were analyzed using the HPLC system coupled with tandem mass spectrometer.
The elimination constant (kel), half-life (t1/2) and intrinsic clearance (Clint) were determined in plot of […] versus time, using linear regression analysis: […]
(Liver microsomes are vesicles of endoplasmic reticulum, rich in cytochrome P450 enzymes.)

For the molecule `CC(=O)Nc1ccc(C(=O)Nc2ccccc2N)cc1` [CI-994, 4-(acetylamino)-N-(2-aminophenyl)benzamide, reference compound], the “Wnt reporter activity / activation of Wnt/β-catenin signaling” value in the data set on Wnt/β-catenin signaling was “increased”. Further, the ALP activity entry with C2C12 cells (C2C12 cells, 0.8 μM and 1.6 μM) is “significantly enhanced”.

Molecule `CC1CCCC(C)N1CCNC(=O)c1ccc(C(=O)Nc2ccccc2N)nc1` (centres unmarked) [Compound 1011] displayed an EC50 in the data set on Wnt/β-catenin signaling of 920 ± 455 nM. Moreover, the “stability in mouse hepatic microsomal system” value (from here on “stability”) in data set [1] is “good stability”. Moreover, the “potency in inducing C2C12 osteoblastic differentiation compared with CI-994” value in the data set with C2C12 cells is given as “more potent than CI-994”.

With `Nc1ccccc1NC(=O)c1ccc(C(=O)NCC2CCN2C2CCCC2)cn1` (centres unmarked) [Compound 1015], in the data set with Wnt/β-catenin signaling, the “Wnt reporter activity / activation of Wnt/β-catenin signaling” value was “activate” and the EC50 came out at 623 ± 212 nM. Also, the “stability” value in data set [1] is “good stability”. Besides, the “potency in inducing C2C12 osteoblastic differentiation compared with CI-994” value in the data set with C2C12 cells is “more potent than CI-994”.

Turning to `Nc1ccccc1NC(=O)c1ccc(C(=O)NCCN2CCC3(CCCCC3)CC2)cc1` [Compound 1020], in the data set on Wnt/β-catenin signaling, the EC50 amounted to 860 ± 278 nM. Besides, in data set [1], the “stability” value is “unstable”.

As a reminder, the EC50 is the concentration giving half of the maximal effect.

(Values after patent US20220267271A1, “WNT ACTIVATORS AND METHODS OF USE” (MAYO FOUNDATION FOR MEDICAL EDUCATION AND RESEARCH, priority 2019, published 2022).)
